Tests used:
SOS1 = SOS1 (Homo sapiens (Human), UniProt Q07889); test: Ras-SOS interaction assay (HTRF), K-Ras G13D utilized; format: binding; conditions: K-Ras G13D, read-out: SOS1 IC50
[1] = system: NCI-H1975 (ATCC CRL-5908) cell line comprising an EGFR T790M L858R double mutation; test: EGFR-SOS cellular inhibition assay (CellTiter-Glo cell proliferation); format: cell-based; conditions: Homo sapiens, 120 h; NCI-H1975 cell proliferation, approximately 5 days; read-out: H1975 IC50
Procedure: A CellTiter-Glo (CTG) luminescent based assay (Promega) is used to assess growth of the cells, as a measurement of the ability of the compounds herein to inhibit EGFR signaling in the cells. […] The day after plating, cells are treated with a dilution series (e.g., a 9 point 3-fold dilution series) of the compounds herein (e.g., approximately 125 μL final volume per well).

Chain of SOS1 (Q07889 564-1049): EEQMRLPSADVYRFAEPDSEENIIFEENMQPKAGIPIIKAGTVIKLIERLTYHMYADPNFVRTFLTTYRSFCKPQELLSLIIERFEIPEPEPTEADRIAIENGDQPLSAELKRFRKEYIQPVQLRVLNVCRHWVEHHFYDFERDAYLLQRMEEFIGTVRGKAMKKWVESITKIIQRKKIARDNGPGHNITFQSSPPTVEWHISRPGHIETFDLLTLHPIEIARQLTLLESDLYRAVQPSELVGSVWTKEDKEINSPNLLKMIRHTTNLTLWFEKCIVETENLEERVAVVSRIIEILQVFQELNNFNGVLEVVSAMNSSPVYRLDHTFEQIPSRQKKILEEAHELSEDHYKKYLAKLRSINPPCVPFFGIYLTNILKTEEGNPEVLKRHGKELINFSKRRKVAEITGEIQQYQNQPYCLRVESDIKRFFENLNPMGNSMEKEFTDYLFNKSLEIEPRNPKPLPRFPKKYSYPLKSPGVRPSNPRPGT

## C[C@H]1Nc2ncnc3c2cc(N2CCN(S(C)(=O)=O)CC2)c(=O)n3CCCCCCCN2CCC(CC2)C(F)(F)c2cccc1c2F [Compound 180, (4R)-3^2,2,2-trifluoro-4-methyl-6^6-(4-(methylsulfonyl)piperazin-1-yl)-6^7,6^8-dihydro-5-aza-6(4,8)-pyrido[2,3-d]pyrimidina-1(4,1)-piperidina-3(1,3)-benzenacyclotride-caphan-6^7-one]
SOS1
  IC50: < 100 nM
[1]
  IC50: < 1000 nM

## C[C@H]1Nc2ncnc3c2cc(C2(C#N)CC2)c(=O)n3CCCCCCN2CCC(CC2)CC(F)(F)c2cccc1c2F [Compound 15, 1-((3R)-4^2,5,5-trifluoro-3-methyl-1^7-oxo-1^7,1^8-dihydro-2-aza-1(4,8)-pyrido[2,3-d]pyrimidina-7(4,1)-piperidina-4(1,3)-benzenacyclotridecaphane-1^6-yl)cyclopropane-1-carbonitrile]
SOS1
  IC50: < 100 nM
[1]
  IC50: < 1000 nM

## CC(C)N1CCC(c2cc3c4ncnc3n(c2=O)CCCCCCCN2CCC(CC2)C(F)(F)c2cccc(c2)[C@@H](C)N4)CC1 [Compound 73, (4R)-2,2-difluoro-6^6-(1-isopropylpiperidin-4-yl)-4-methyl-6^7,6^8-dihydro-5-aza-6(4,8)-pyrido[2,3-d]pyrimidina-1(4,1)-piperidina-3(1,3)-benzenacyclotridecaphan-6^7-one]
SOS1
  IC50: < 100 nM
[1]
  IC50: < 1000 nM

## C[C@H]1Nc2ncnc3c2cc(C2CCS(=O)(=O)CC2)c(=O)n3CCCCCN2CCC(CC2)CCC(F)(F)c2cccc1c2F [Compound 151, (3R)-1^6-(1,1-dioxidotetrahydro-2H-thiopyran-4-yl)-4^2,5,5-trifluoro-3-methyl-1^7,1^8-dihydro-2-aza-1(4,8)-pyrido[2,3-d]pyrimidina-8(4,1)-piperidina-4(1,3)-benzenacyclotridecaphan-1^7-one]
SOS1
  IC50: < 100 nM
[1]
  IC50: < 1000 nM

## C[C@H]1Nc2ncnc3c2cc(C2CCS(=O)(=O)CC2)c(=O)n3CCCOCCCN2CCC(CC2)CC(F)(F)c2cccc1c2F [Compound 191, (3R)-1^6-(1,1-dioxidotetrahydro-2H-thiopyran-4-yl)-4^2,5,5-trifluoro-3-methyl-1^7,1^8-dihydro-11-oxa-2-aza-1(4,8)-pyrido[2,3-d]pyrimidina-7(4,1)-piperidina-4(1,3)-benzenacyclotetradecaphan-1^7-one]
SOS1
  IC50: < 100 nM
[1]
  IC50: < 1000 nM

## CC1CCCCCCn2c(=O)c(C3(C#N)CC3)cc3c(ncnc32)N[C@H](C)c2cccc(c2)C(F)(F)C2CCN1CC2 (stereo partly drawn) [Compound 63, 1-((4R)-2,2-difluoro-4,13-dimethyl-6^7-oxo-6^7,6^8-dihydro-5-aza-6(4,8)-pyrido[2,3-d]pyrimidina-1(4,1)-piperidina-3(1,3)-benzenacyclotridecaphane-6^6-yl)cyclopropane-1-carbonitrile]
SOS1
  IC50: < 100 nM
[1]
  IC50: < 1000 nM

## C[C@H]1Nc2ncnc3nc(c(C4(C#N)CC4)cc23)OCCCCCCCN2CCC(CC2)C(F)(F)c2cccc1c2 [Compound 137, (R)-1-(2,2-difluoro-4-methyl-7-oxa-5-aza-6(4,7)-pyrido[2,3-d]pyrimidina-1(4,1)-piperidina-3(1,3)-benzenacyclotetradecaphane-6^6-yl)cyclopropane-1-carbonitrile]
SOS1
  IC50: < 100 nM
[1]
  IC50: < 1000 nM

## C[C@H]1Nc2ncnc3c2cc(C2CCS(=O)(=O)CC2)c(=O)n3CCCCCCCN2CCC(CC2)C(F)(F)c2cccc1c2F [Compound 125, (4R)-6^6-(1,1-dioxidotetrahydro-2H-thiopyran-4-yl)-3^2,2,2-trifluoro-4-methyl-6^7,6^8-dihydro-5-aza-6(4,8)-pyrido[2,3-d]pyrimidina-1(4,1)-piperidina-3(1,3)-benzenacyclotridecaphan-6^7-one]
SOS1
  IC50: < 100 nM
[1]
  IC50: < 1000 nM

## CC(C)N1CCC(c2cc3c4ncnc3n(c2=O)CCOCCCCN2CCC(CC2)CC(F)(F)c2cccc(c2)[C@@H](C)N4)CC1 [Compound 122, (3R)-5,5-difluoro-1^6-(1-isopropylpiperidin-4-yl)-3-methyl-1^7,1^8-dihydro-12-oxa-2-aza-1(4,8)-pyrido[2,3-d]pyrimidina-7(4,1)-piperidina-4(1,3)-benzenacyclotetradecaphan-1^7-one]
SOS1
  IC50: < 100 nM
[1]
  IC50: < 1000 nM

## C[C@H]1Nc2ncnc3c2cc(C2(C#N)CC2)c(=O)n3CCCNC(=O)CCN2CCC(CC2)C(F)(F)c2cccc1c2F [Compound 11, 1-((4R)-3^2,2,2-trifluoro-4-methyl-6^7,11-dioxo-6^7,6^8-dihydro-5,10-diaza-6(4,8)-pyrido[2,3-d]pyrimidina-1(4,1)-piperidina-3(1,3)-benzenacyclotridecaphane-6^6-yl)cyclopropane-1-carbonitrile]
SOS1
  IC50: < 100 nM
[1]
  IC50: < 1000 nM

## C[C@H]1Nc2ncnc3nc(c(C4(C#N)CC4)cc23)OCCCCCCN2CCC(CC2)C(F)(F)c2cccc1c2 [Compound 121, (R)-1-(2,2-difluoro-4-methyl-7-oxa-5-aza-6(4,7)-pyrido[2,3-d]pyrimidina-1(4,1)-piperidina-3(1,3)-benzenacyclotridecaphane-6^6-yl)cyclopropane-1-carbonitrile]
SOS1
  IC50: < 100 nM
[1]
  IC50: < 1000 nM

## C[C@H]1Nc2ncnc3c2cc(C2CCS(=O)(=O)CC2)c(=O)n3CCCOCCCCN2CCC(CC2)C(F)(F)c2cccc1c2 [Compound 62, (4R)-66-(1,1-dioxidotetrahydro-2H-thiopyran-4-yl)-2,2-difluoro-4-methyl-67,68-dihydro-10-oxa-5-aza-6(4,8)-pyrido[2,3-d]pyrimidina-1(4,1)-piperidina-3(1,3)-benzenacyclotetradecaphan-67-one]
SOS1
  IC50: < 100 nM
[1]
  IC50: < 1000 nM

## CC1CCCCCn2c(=O)c(C3(C#N)CC3)cc3c(ncnc32)N[C@H](C)c2cccc(c2F)C(F)(F)C2CCN(CC2)C1 (stereo partly drawn) [Compound 20, 1-((4R)-3^2,2,2-trifluoro-4,12-dimethyl-6^7-oxo-6^7,6^8-dihydro-5-aza-6(4,8)-pyrido[2,3-d]pyrimidina-1(4,1)-piperidina-3(1,3)-benzenacyclotridecaphane-6^6-yl)cyclopropane-1-carbonitrile]
SOS1
  IC50: < 100 nM
[1]
  IC50: < 1000 nM

## C[C@H]1Nc2ncnc3c2cc(C2(C#N)CCS(=O)(=O)CC2)c(=O)n3CCCCCCN2CCC(CC2)CC(F)(F)c2cccc1c2F [Compound 23, 4-((3R)-4^2,5,5-trifluoro-3-methyl-1^7-oxo-1^7,1^8-dihydro-2-aza-1(4,8)-pyrido[2,3-d]pyrimidina-7(4,1)-piperidina-4(1,3)-benzenacyclotridecaphane-1^6-yl)tetrahydro-2H-thiopyran-4-carbonitrile 1,1-dioxide]
SOS1
  IC50: < 100 nM
[1]
  IC50: < 1000 nM

## CC(C)N1CCN(c2cc3c4ncnc3n(c2=O)CCCOCCCCN2CCC(CC2)C(F)(F)c2cccc(c2F)[C@@H](C)N4)CC1 [Compound 77, (4R)-3^2,2,2-trifluoro-6^6-(4-isopropylpiperazin-1-yl)-4-methyl-6^7,6^8-dihydro-10-oxa-5-aza-6(4,8)-pyrido[2,3-d]pyrimidina-1(4,1)-piperidina-3(1,3)-benzenacyclotetradecaphan-6^7-one]
SOS1
  IC50: < 100 nM
[1]
  IC50: < 1000 nM

## C[C@H]1Nc2ncnc3c2cc(C2CCS(=O)(=O)CC2)c(=O)n3CCCNC(=O)CCN2CCC(CC2)C(F)(F)c2cccc1c2 [Compound 91, (4R)-6^6-(1,1-dioxidotetrahydro-2H-thiopyran-4-yl)-2,2-difluoro-4-methyl-6^7,6^8-dihydro-5,10-diaza-6(4,8)-pyrido[2,3-d]pyrimidina-1(4,1)-piperidina-3(1,3)-benzenacyclotridecaphane-6^7,11-dione]
SOS1
  IC50: < 100 nM
[1]
  IC50: < 1000 nM

## Cc1nc2c3cc(C4(C#N)CC4)c(=O)n(c3n1)CCCCC/C=C\COCC(F)(F)c1cccc(c1F)[C@@H](C)N2 [Compound 109, 1-((3R,Z)-4^2,5,5-trifluoro-1^2,3-dimethyl-1^7-oxo-1^7,1^8-dihydro-7-oxa-2-aza-1(4,8)-pyrido[2,3-d]pyrimidina-4(1,3)-benzenacyclopentadecaphan-9-en-1^6-yl)cyclopropane-1-carbonitrile]
SOS1
  IC50: < 100 nM
[1]
  IC50: < 1000 nM

## C[C@H]1Nc2ncnc3c2cc(C2(C#N)CC2)c(=O)n3CCNC(=O)CCCN2CCC(CC2)C(F)(F)c2cccc1c2 [Compound 71, 1-((4R)-2,2-difluoro-4-methyl-6^7,10-dioxo-6^7,6^8-dihydro-5,9-diaza-6(4,8)-pyrido[2,3-d]pyrimidina-1(4,1)-piperidina-3(1,3)-benzenacyclotridecaphane-6^6-yl)cyclopropane-1-carbonitrile]
SOS1
  IC50: < 100 nM
[1]
  IC50: < 1000 nM

## C[C@H]1Nc2ncnc3c2cc(C2CCS(=O)(=O)CC2)c(=O)n3CC(=O)N(C)CCCCN2CCC(CC2(C)C)C(F)(F)c2cccc1c2 (stereo partly drawn) [Compound 78, (1^4R,4R)-6^6-(1,1-dioxidotetrahydro-2H-thiopyran-4-yl)-2,2-difluoro-1^2,1^2,4,9-tetramethyl-6^7,6^8-dihydro-5,9-diaza-6(4,8)-pyrido[2,3-d]pyrimidina-1(4,1)-piperidina-3(1,3)-benzenacyclotridecaphane-6^7,8-dione]
SOS1
  IC50: < 100 nM
[1]
  IC50: < 1000 nM

## C[C@H]1Nc2ncnc3c2cc(C2(C#N)CC2)c(=O)n3CCCCNC(=O)CN2CCC(CC2)C(F)(F)c2cccc1c2 [Compound 124, 1-((4R)-2,2-difluoro-4-methyl-6^7,12-dioxo-6^7,6^8-dihydro-5,11-diaza-6(4,8)-pyrido[2,3-d]pyrimidina-1(4,1)-piperidina-3(1,3)-benzenacyclotridecaphane-6^6-yl)cyclopropane-1-carbonitrile]
SOS1
  IC50: < 100 nM
[1]
  IC50: < 1000 nM

## CC1CC/C=C\CCn2c(=O)c(C3(C#N)CC3)cc3c(ncnc32)N[C@H](C)c2cccc(c2F)C(F)(F)C2CCN1CC2 (stereo partly drawn) [Compound 24, 1-((4R,Z)-3^2,2,2-trifluoro-4,13-dimethyl-6^7-oxo-6^7,6^8-dihydro-5-aza-6(4,8)-pyrido[2,3-d]pyrimidina-1(4,1)-piperidina-3(1,3)-benzenacyclotridecaphan-9-en-6^6-yl)cyclopropane-1-carbonitrile]
SOS1
  IC50: < 100 nM
[1]
  IC50: < 1000 nM

From patent US20230339952A1, “MACROCYCLIC HETEROCYCLES AND USES THEREOF” (Kumquat Biosciences Inc., priority 2022, published 2023)
